Reference: patent publication US20110020312A1, “METHODS FOR TREATMENT OF METABOLIC DISORDERS USING EPIMETABOLIC SHIFTERS, MULTIDIMENSIONAL INTRACELLULAR MOLECULES, OR ENVIRONMENTAL INFLUENCERS” (priority 2009, published 2011)

Columns and labels:
[1] = cited from earlier work
HepG2 cells = assay: Nexin assay for apoptosis, 24 h Q10; assay type: cell-based; details: 50 μM Q10, 24 hours
Source text: (§1) The 7AAD dye will enter into cells with permeabilized cell membranes; primarily those cells that are in late apoptosis. Annexin-V-PE is a dye that binds to Phosphotidyl serine, which is exposed on the outer surface of the plasma membrane in early apoptotic cells. The Nexin reagent thus can be used to differentiate between different populations of apoptotic cells in a flow cytometer.

PC-3 cells = assay: Nexin assay for apoptosis, 24 h Q10; assay type: cell-based; details: 50 μM and 100 μM Q10, 24 hours; increase less than in PaCa2
Source text: as §1

MCF-7 cells = assay: Nexin assay for apoptosis, 24 h Q10; assay type: cell-based; details: 50 μM and 100 μM Q10, 24 hours
Source text: as §1

Caspase 3 = assay: Western blot, Caspase 3 levels; assay type: cell-based, human
Experimental: The blots were stripped by incubating for 30 minutes with methanol, followed by two 10 minute washes with TBS-T, then 30 minutes of incubation with Stripping buffer at 50 deg C., and followed by two washes with 100 ml or more of TBS-T for 30′ each. The 2 blots were scanned in laser scanner to check for complete stripping. The blots were activated with methanol for 5 seconds, washed with water for 5 minutes, and TBST for 15 minutes. The blots were blocked for 1 hour with 5% blocking reagent in TBS-T at room temperature and then washed 3 times with TBS-T (1×-15′; 2×5′ each) and probed with the antibody for Caspase 3 in 5% BSA (Santacruz Biotechnology # sc7272) at 1:200 dilutions) overnight at 4 deg C. with shaking. After the overnight incubation with primary antibody for Caspase 3, the membranes were washed 3 times with TBS-T (1×-15′; 2×5′ each) and probed with the secondary antibody (antimouse; 1:10,000 dilution) for 1 h on the orbital tilting shaker at room temperature. After 1 h of incubation with secondary antibodies, the blots were washed 3 times with TBS-T (1×-15′; 2×5′ each) and then incubated with ECF reagent for 5 minutes and then each blot scanned with 5100 Fuji Laser scanner at 25 uM resolution, 16 bit, green laser, at 400V and at 500 V.
The samples were processed and the gels were run, transferred, stained and scanned essentially as described above.
The levels of Caspase 3 and actin were determined by probing the blots successively with primary antibodies for Caspase 3 and actin, essentially as described above.
The Actin blots were stripped by incubating for 30 minutes with methanol, followed by two 10 minute washes with TBS-T, then 30 minutes of incubation with Stripping buffer at 50 deg C., and followed by two washes with 100 ml or more of TBS-T for 30′ each. The blots were scanned in laser scanner to check for complete stripping. The blots were activated with methanol for 5 seconds, washed with water for 5 minutes, and TBST for 15 minutes. The blots were blocked for 1 hour with 5% blocking reagent in TBS-T at room temperature and then washed 3 times with TBS-T (1×-15′; 2×5′ each) and probed with the primary antibody for Hif 1 alpha, Caspase 3 or PDHB in 5% BSA (at 1:200 by incubation overnight at 4 deg C. with gentle shaking. The primary antibody for Hif 1 alpha (Abcam ab2185; antirabbit) was at 1:500 dilution in 5% BSA. The primary antibody for Caspase 3 (Santacruz sc7272; antirabbit) was at 1:200 dilution in 5% BSA. The primary antibody for Pyruvate Dehydrogenase beta (PDHB) (Novus Biologicals H00005162-M03; antimouse) was at 1:500 dilution in 5% BSA. After incubation with primary antibodies, the membranes were washed 3 times with TBS-T (1×-15′; 2×5′ each) and probed with the secondary antibody (PDHB antimouse; Hif 1a and Caspase 3 antirabbit; 1:10,000 dilution) for 1 h at room temperature. After 1 h of incubation with secondary antibodies, the blots were washed 3 times with TBS-T (1×-15′; 2×5′ each) and then incubated with ECF reagent for 5 minutes and then each blot scanned with 5100 Fuji Laser scanner at 25 uM resolution, 16 bit, green laser, at 400V and at 500 V.
The Actin blots were stripped by incubating for 30 minutes with methanol, followed by two 10 minute washes with TBS-T, then 30 minutes of incubation with Stripping buffer at 50 deg C., and followed by two washes with 100 ml or more of TBS-T for 30′ each. The blots were activated with methanol for 5 seconds, washed with water for 5 minutes, and TBST for 15 minutes. The blots were blocked for 1 hour with 5% blocking reagent in TBS-T at room temperature and then washed 3 times with TBS-T (1×-15′; 2×5′ each) and probed with the primary antibody for Caspase 3 or MMP-6 in 5% BSA by incubation overnight at 4 deg C. with gentle shaking. The primary antibody for Caspase 3 (Abcam ab44976-100; antirabbit) was at 1:500 dilution in 5% BSA. The primary antibody for MMP-6 (Santacruz scMM0029-ZB5; antimouse) was at 1:100 dilution in 5% BSA. […]

[2] = test system: HAEC, MCF-7, HepG2 and PC-3 cell lines; assay: OCR and ECAR in other normal and cancer cell lines (data not shown); assay type: cell-based; details: absence and/or presence of stressors (hyperglycemia, hypoxia, lactic acid)
Experimental: A similar comparison of OCR and ECAR values (data not shown) were determined in numerous other normal and cancer cells lines, including: HAEC (normal human aortic endothelial cells), MCF-7 (breast cancer), HepG2 (liver cancer) and highly metastatic PC-3 (prostate cancer) cell lines. […] Thus, the overall effect of CoQ10 in the treatment of cancer, including cell death, is an downstream effect of its collective influence on proteomic, genomic, metabolomic outcomes in concert with shifting of the cellular bioenergetics from glycolysis to mitochondrial OXPHOS.

SMILES: COC1=C(OC)C(=O)C(C/C=C(\C)CC/C=C(\C)CC/C=C(\C)CC/C=C(\C)CC/C=C(\C)CC/C=C(\C)CC/C=C(\C)CC/C=C(\C)CC/C=C(\C)CCC=C(C)C)=C(C)C1=O [Q10, Coenzyme Q10]
- solubility in water [1]: insoluble in water
- increase of gated population in late and early apoptotic stages (HepG2 cells): about 20%
- early and late apoptotic population (PC-3 cells): increase in both early and late apoptotic population
- early/late apoptotic population (MCF-7 cells): increase only in early apoptotic population
- Caspase 3 Normalized Volume (Caspase 3; HASMC, 5g48-50): 766
- Caspase 3 Normalized Volume (Caspase 3; HASMC, 5g48-100): 669
- Caspase 3 Normalized Volume (Caspase 3; HASMC, 22G24-50): 835
- Caspase 3 Normalized Volume (Caspase 3; HASMC, 22G24-100): 865
- Caspase 3 Normalized Volume (Caspase 3; HASMC, 22G48-50): 639
- Caspase 3 Normalized Volume (Caspase 3; HASMC, 22G48-100): 624
- Caspase 3 Normalized Volume as a % (Caspase 3; HepG2, 5g24-50, 2 Experiments): 108%
- Caspase 3 Normalized Volume as a % (Caspase 3; HepG2, 5g24-100, 2 Experiments): 176%
- Caspase 3 Normalized Volume as a % (Caspase 3; HepG2, 5g48-50, 2 Experiments): 144%
- Caspase 3 Normalized Volume as a % (Caspase 3; HepG2, 5g48-100, 2 Experiments): 95%
- Caspase 3 Normalized Volume as a % (Caspase 3; HepG2, 22G24-50, 2 Experiments): 139%
- Caspase 3 Normalized Volume as a % (Caspase 3; HepG2, 22G24-100, 2 Experiments): 178%
- Caspase 3 Normalized Volume as a % (Caspase 3; HepG2, 22G48-50, 2 Experiments): 150%
- Caspase 3 Normalized Volume as a % (Caspase 3; HepG2, 22G48-100, 2 Experiments): 145%
- Caspase 3 Normalized Volume (Caspase 3; PACA2, 5g-50, 24 h): 325
- Caspase 3 Normalized Volume (Caspase 3; PACA2, 5g-50, 48 h): 701
- Caspase 3 Normalized Volume (Caspase 3; PACA2, 5g-100, 24 h): 374
- Caspase 3 Normalized Volume (Caspase 3; PACA2, 5g-100, 48 h): 291
- Caspase 3 Normalized Volume (Caspase 3; PACA2, 22G-50, 24 h): 675
- Caspase 3 Normalized Volume (Caspase 3; PACA2, 22G-50, 48 h): 497
- Caspase 3 Normalized Volume (Caspase 3; PACA2, 22G-100, 24 h): 842
- Caspase 3 Normalized Volume (Caspase 3; PACA2, 22G-100, 48 h): 559
- levels of caspase 3 (Caspase 3; cancer cells): increased
- expression of Caspase-3 (Caspase 3; normal cells): moderately decreased
- OCR and ECAR values [2]: shift in OCR and ECAR values representative of values observed in a normal cells
